Patent publication US20100310561A1, “NATRIURETIC FUSION PROTEINS” (BOEHRINGER INGELHEIM INTERNATIONAL GMBH, priority 2007, published 2010)
Like-named read-outs stand apart in the source and are kept apart here. Each block holds one compound with its values, some of them ahead of it.

Tests used:
[1] = humans; Potter et al.; cited from earlier work
human NPRA = target: T1, human NPRA (Homo sapiens, UniProt P16066); test: Natriuretic peptide fusion protein induced cGMP assay, human NPRA transfected HEK293 cells; format: cell-based
T1 sequence (P16066 33-1061): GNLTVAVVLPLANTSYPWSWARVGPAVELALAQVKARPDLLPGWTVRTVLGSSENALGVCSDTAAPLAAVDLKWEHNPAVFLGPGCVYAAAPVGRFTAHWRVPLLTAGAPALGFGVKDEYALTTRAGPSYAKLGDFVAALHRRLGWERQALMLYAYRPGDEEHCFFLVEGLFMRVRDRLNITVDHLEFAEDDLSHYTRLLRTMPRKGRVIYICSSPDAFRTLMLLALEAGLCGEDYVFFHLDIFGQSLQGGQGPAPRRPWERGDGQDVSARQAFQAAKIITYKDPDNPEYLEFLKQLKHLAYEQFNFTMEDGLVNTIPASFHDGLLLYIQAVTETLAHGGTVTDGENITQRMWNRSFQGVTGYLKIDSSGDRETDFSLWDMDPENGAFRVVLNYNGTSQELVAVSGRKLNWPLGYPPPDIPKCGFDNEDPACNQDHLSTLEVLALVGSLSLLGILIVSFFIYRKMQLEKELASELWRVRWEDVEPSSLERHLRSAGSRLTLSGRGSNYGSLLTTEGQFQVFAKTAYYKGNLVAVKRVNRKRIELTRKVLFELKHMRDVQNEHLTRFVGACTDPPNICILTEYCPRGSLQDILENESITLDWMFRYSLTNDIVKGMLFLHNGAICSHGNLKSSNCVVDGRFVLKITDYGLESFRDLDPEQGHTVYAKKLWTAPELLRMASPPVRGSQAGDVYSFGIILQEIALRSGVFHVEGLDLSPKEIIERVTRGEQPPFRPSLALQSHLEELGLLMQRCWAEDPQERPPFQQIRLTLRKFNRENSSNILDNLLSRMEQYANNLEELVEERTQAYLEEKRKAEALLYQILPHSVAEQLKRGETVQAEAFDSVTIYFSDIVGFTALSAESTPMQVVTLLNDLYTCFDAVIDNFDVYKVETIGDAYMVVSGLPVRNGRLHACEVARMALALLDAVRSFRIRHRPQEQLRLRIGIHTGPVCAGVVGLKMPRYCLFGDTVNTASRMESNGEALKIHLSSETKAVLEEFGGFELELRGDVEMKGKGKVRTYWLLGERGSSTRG
From the text: Full-length human NPRA, human NPRB, and human […] (NPRC) sequence containing plasmids were purchased from OriGene Technologies, Inc. (Rockville, Md.) then sub-cloned into pcDNA3.1 directional mammalian expression vector (Invitrogen). Insert orientation and nucleotide sequence of each construct was verified by an outside vendor (SeqWright, Inc.). The pcDNA3.1 NPR clones were transfected using Lipofectamine (Invitrogen) into HEK293 cells where stable cell lines expressing human NPRA, human NPRB, or human NPRC are selected using G418. Clones were screened using the natriuretic peptide induced cGMP assay described below. (NPRA clones were treated with human ANP while NPRB clones were treated with human CNP (Sigma)). High cGMP producing clones were expanded. NPRC clones were screened using a ^125I ANP binding assay. ^125I ANP high binders were expanded. […]
Natriuretic peptides of >95% HPLC purity were obtained from Sigma. […] The cGMP concentration was measured using the HitHunter™ cGMP Assay Kit (DiscoveRx Corporation). cGMP production dose response curves were generated with a four parameter logistic equation fitted using the Levenburg Marquardt algorithm in XLfit4.2 data analysis software (ID Business Solutions, Ltd.).
Results 1 from both Labs 1 and 2 were generated by interpreting the raw Relative Luminescence Units (RLU). […]

Monkey NPRA = test: cGMP assay, monkey NPRA expressing HEK293 cells; format: cell-based; settings: Table 4
Procedure: (§1) Natriuretic peptides of >95% HPLC purity were obtained from Sigma. HEK293 NPRA cells grown to 90% confluence were harvested using HANKS based Cell Dissociation Medium (GIBCO). Cells were washed and resuspended at 3.3×10^5 cells per mL in pre warmed Dulbecco's PBS, pH 7.4, 25 mM HEPES, 0.1% BSA, 500 μM 3-Isobutyl-1-methylxanthine (IBMX) [Assay Buffer]. Assays were performed in Optiplate-96 White Opaque 96-well Microplates (Perkin Elmer). 15 μL of cell suspension is added to 15 μL of 2× fusion protein in Assay Buffer in triplicate and incubated for 20 minutes at 37° C. The cGMP concentration was measured using the HitHunter™ cGMP Assay Kit (DiscoveRx Corporation). cGMP production dose response curves were generated with a four parameter logistic equation fitted using the Levenburg Marquardt algorithm in XLfit4.2 data analysis software (ID Business Solutions, Ltd.).
The selectivity of the recombinant ANP-Fc fusion proteins was assessed by analyzing their efficacy in NPRB expressing cell lines. The species cross-reactivity of the ANP-Fc fusion proteins was tested in rat, canine, and monkey NPRA expressing HEK293 cell lines. The ANP-Fc fusions tested have good cross-reactivity in the rat, canine, and monkey NPRA mediated cGMP assays (Table 4). The ANP-Fc fusion proteins have nearly equivalent dose response values when tested in human, dog and monkey expressing NPRA cells. […]

Dog NPRA = test: cGMP assay, canine NPRA expressing 293 cells; format: cell-based
Procedure: as §1
Human ANP28 peptide was assayed for cGMP production in species specific NPRA transfected 293 or 293T cells. Dose response curves for cGMP production stimulated by human ANP28 peptide in rat NPRA (rNPRA) expressing 293T cells and human NPRA (hNPRA) and canine NPRA (caNPRA) expressing 293 cells are shown in FIG. 2.
The selectivity of the recombinant ANP-Fc fusion proteins was assessed by analyzing their efficacy in NPRB expressing cell lines. […]

Compound: BNP: B-type natriuretic peptide
plasma half life [1]: approximately 20 minutes

Compound: Wild-type rat ANP: rat atrial natriuretic peptide, differs from human ANP by one amino acid (SLRRSSCFGGRIDRIGAQSGLGCNSFRY) [reference compound]
EC50 compared with human ANP in the human NPRA cGMP assay (human NPRA): slightly higher

EC50 (Monkey NPRA): 0.5 nM | EC50 (Dog NPRA; Table 4, read-out: cGMP EC50 (nM) Dog NPRA): 1.3 nM | EC50 (Dog NPRA; caNPRA 293 cells, read-out: Mean EC50 nM, cGMP-caNPRA 293): 1.34 nM
Compound: CC[C@H](C)[C@@H]1NC(=O)[C@H](CCCNC(=N)N)NC(=O)[C@H](CC(=O)O)NC(=O)[C@H](CCSC)NC(=O)[C@H](CCCNC(=N)N)NC(=O)CNC(=O)CNC(=O)[C@H](Cc2ccccc2)NC(=O)[C@@H](NC(=O)[C@H](CO)NC(=O)[C@H](CO)NC(=O)[C@H](CCCNC(=N)N)NC(=O)[C@H](CCCNC(=N)N)NC(=O)[C@H](CC(C)C)NC(=O)[C@@H](N)CO)CSSC[C@@H](C(=O)N[C@@H](CC(N)=O)C(=O)N[C@@H](CO)C(=O)N[C@@H](Cc2ccccc2)C(=O)N[C@@H](CCCNC(=N)N)C(=O)N[C@@H](Cc2ccc(O)cc2)C(=O)O)NC(=O)CNC(=O)[C@H](CC(C)C)NC(=O)CNC(=O)[C@H](CO)NC(=O)[C@H](CCC(N)=O)NC(=O)[C@H](C)NC(=O)CNC1=O [Construct 1, ANPXY]
